The source of these data is ChEMBL document CHEMBL3868615, “Decahydrobenzoquinolin-5-one sigma receptor ligands: Divergent development of both sigma 1 and sigma 2 receptor selective examples” (Bioorg Med Chem Lett, 2016).

One experiment deals with PC-12. The experiment in a line: Selectivity ratio of Ki for sigma2 receptor in rat PC12 cells to Ki for guinea pig sigma1 receptor. Type of experiment: cell-based.
A short description of experiment [1]: Displacement of [3H]DTG from sigma2 receptor in rat PC12 cells measured after 90 mins by microbeta scintillation counting method. Type of experiment: cell-based. Particulars: pc-12. Background: Displacement assays read how much labelled ligand stays bound in the presence of the test substance.
The target of another experiment is Mu-type opioid receptor (Homo sapiens, UniProt P35372). As to the kind of experiment: Displacement of [3H]DAMGO from human MOR expressed in HEK cells after 90 mins by microbeta scintillation counting method. Type of experiment: cell-based, HEK293.
Chain of Mu-type opioid receptor (P35372 whole entry): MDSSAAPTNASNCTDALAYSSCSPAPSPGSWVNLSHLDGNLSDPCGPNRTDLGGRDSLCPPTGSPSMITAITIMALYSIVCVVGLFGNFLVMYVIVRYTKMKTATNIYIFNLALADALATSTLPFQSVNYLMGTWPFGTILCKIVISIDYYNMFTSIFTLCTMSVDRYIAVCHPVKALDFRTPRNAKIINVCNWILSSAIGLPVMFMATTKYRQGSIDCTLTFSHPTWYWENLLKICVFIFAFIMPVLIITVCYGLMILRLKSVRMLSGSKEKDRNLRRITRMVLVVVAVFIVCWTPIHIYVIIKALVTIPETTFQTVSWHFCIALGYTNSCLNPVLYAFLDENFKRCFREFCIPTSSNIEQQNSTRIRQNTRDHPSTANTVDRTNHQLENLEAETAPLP
For experiment [2], the target named is Delta-type opioid receptor (Homo sapiens, UniProt P41143). The experiment in a line: Displacement of [3H]DADLE from human DOR expressed in HEK cells measured after 90 mins by microbeta scintillation counting method. Type of experiment: cell-based, HEK293.
Chain of Delta-type opioid receptor (P41143 whole entry): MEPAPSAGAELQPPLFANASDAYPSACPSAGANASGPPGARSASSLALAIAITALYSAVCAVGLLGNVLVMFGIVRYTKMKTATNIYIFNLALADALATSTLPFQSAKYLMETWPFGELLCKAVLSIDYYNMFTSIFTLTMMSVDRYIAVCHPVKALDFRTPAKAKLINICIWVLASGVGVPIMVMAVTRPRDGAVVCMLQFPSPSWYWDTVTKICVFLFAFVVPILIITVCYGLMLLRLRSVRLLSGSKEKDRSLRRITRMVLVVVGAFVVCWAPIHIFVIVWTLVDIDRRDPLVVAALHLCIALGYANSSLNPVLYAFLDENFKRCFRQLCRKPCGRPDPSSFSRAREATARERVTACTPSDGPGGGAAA
Experiment [3] deals with Sigma non-opioid intracellular receptor 1 (Cavia porcellus, UniProt Q60492). The experiment in a line: Displacement of [3H]pentazocine from guinea pig sigma1 receptor measured after 90 mins by microbeta scintillation counting method.
Chain of Sigma non-opioid intracellular receptor 1 (Q60492 whole entry): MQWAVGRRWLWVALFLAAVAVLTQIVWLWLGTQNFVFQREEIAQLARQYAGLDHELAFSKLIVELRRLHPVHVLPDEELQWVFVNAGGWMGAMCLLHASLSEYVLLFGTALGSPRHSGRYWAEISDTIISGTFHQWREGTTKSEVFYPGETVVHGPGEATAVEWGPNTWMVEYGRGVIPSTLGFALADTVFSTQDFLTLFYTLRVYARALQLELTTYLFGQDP
Experiment [4] has as its target Kappa-type opioid receptor (Homo sapiens, UniProt P41145). The experiment in a line: Displacement of [3H]U69593 from KOR (unknown origin) expressed in HEKT cells measured after 90 mins by microbeta scintillation counting method. The format is cell-based.

By Ki is commonly meant the equilibrium dissociation constant of an inhibitor or competing ligand from its target. Read a high Ki as weaker binding.

Chain of Kappa-type opioid receptor (P41145 whole entry): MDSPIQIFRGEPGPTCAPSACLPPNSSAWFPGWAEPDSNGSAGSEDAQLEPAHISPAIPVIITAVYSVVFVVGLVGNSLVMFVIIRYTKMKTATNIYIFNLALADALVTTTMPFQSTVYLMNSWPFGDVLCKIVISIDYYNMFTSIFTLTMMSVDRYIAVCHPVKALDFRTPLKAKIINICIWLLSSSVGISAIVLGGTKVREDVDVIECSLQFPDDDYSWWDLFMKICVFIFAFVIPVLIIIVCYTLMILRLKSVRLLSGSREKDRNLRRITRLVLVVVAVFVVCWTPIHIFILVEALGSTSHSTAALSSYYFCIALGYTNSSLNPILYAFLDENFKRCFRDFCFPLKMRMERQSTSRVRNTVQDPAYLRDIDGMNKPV

For `O=C1C[C@@H]2CCN(CC3CCCCC3)[C@@H]3CCC[C@@H]([C@@H]23)[C@H]1Cc1ccccc1`, the Ratio Ki in the experiment on PC-12 is 0.7. The Ki was 2 nM in experiment [1]; over 10000 nM at Mu-type opioid receptor; over 10000 nM in experiment [2]; 3 nM in experiment [3]; 1230 nM in experiment [4].
As to `CC[C@H]1C(=O)C[C@@H]2CCN(S(=O)(=O)c3ccc(C)cc3)[C@@H]3CCC[C@H]1[C@@H]23`, the Ki (in experiment [1]; at Mu-type opioid receptor; in experiment [2]; in experiment [3]; in experiment [4]) was over 10000 nM each time.
As for `CC[C@H]1C(=O)C[C@@H]2CCN(Cc3nccs3)[C@@H]3CCC[C@H]1[C@@H]23`, the Ratio Ki with PC-12 stood at 1.9. The Ki in experiment [1] was 760 nM; on Mu-type opioid receptor, over 10000 nM; in experiment [2] it was over 10000 nM; in experiment [3], 407 nM; in experiment [4] it was over 10000 nM.
For `CCCN1CC[C@H]2CC(=O)[C@H](Cc3ccccc3)[C@H]3CCC[C@@H]1[C@H]23`, the Ratio Ki in the experiment on PC-12 turned out to be 5. In addition, the Ki in experiment [1] was 5 nM; at Mu-type opioid receptor it was over 10000 nM; in experiment [2] it was over 10000 nM; in experiment [3], 1 nM; in experiment [4], 3620 nM.
As to `COCCN1CC[C@H]2CC(=O)[C@H](Cc3ccccc3)[C@H]3CCC[C@@H]1[C@H]23`, the Ratio Ki in the experiment on PC-12 turned out to be 17.5. The Ki is 35 nM in experiment [1]; over 10000 nM on Mu-type opioid receptor; over 10000 nM in experiment [2]; 2 nM in experiment [3]; over 10000 nM in experiment [4].
Turning to `CCCN1CC[C@H]2C[C@@H](O)[C@H](CC)[C@H]3CCC[C@@H]1[C@H]23`, the Ratio Ki in the experiment with PC-12 worked out at 3.3. Moreover, the Ki was 183 nM in experiment [1]; over 10000 nM at Mu-type opioid receptor; over 10000 nM in experiment [2]; 55 nM in experiment [3]; over 10000 nM in experiment [4].
Consider `O=C1C[C@@H]2CCN(Cc3cccs3)[C@@H]3CCC[C@@H]([C@@H]23)[C@H]1Cc1ccccc1`, for which the Ratio Ki with PC-12 is 14.7. Besides, the Ki in experiment [1] was 44 nM; on Mu-type opioid receptor, over 10000 nM; in experiment [2], over 10000 nM; in experiment [3] it was 3 nM; in experiment [4] it was 638 nM.
Turning to `COc1ccc(C[C@H]2C(=O)C[C@@H]3CCN(CCC(C)C)[C@@H]4CCC[C@H]2[C@@H]34)cc1`, the Ratio Ki in the experiment with PC-12 came to 2. Also, the inhibition constant Ki was 6 nM in experiment [1]; over 10000 nM at Mu-type opioid receptor; over 10000 nM in experiment [2]; 3 nM in experiment [3]; over 10000 nM in experiment [4].
`CC[C@H]1C(=O)C[C@@H]2CCN(CCC(C)C)[C@@H]3CCC[C@H]1[C@@H]23`: in the experiment on PC-12, the Ratio Ki was 1.5. The inhibitory constant (Ki) is 6 nM in experiment [1]; over 10000 nM at Mu-type opioid receptor; over 10000 nM in experiment [2]; 4 nM in experiment [3]; 1280 nM in experiment [4].
Consider `CCCN1CC[C@H]2CC(=O)C[C@H]3CCC[C@@H]1[C@@H]32`, for which the Ratio Ki with PC-12 came out at 1. Besides, the Ki was 127 nM in experiment [1]; over 10000 nM at Mu-type opioid receptor; over 10000 nM in experiment [2]; 126 nM in experiment [3]; over 10000 nM in experiment [4].
As to `CCCN1CC[C@@H]2CC(=O)C[C@H]3CCC[C@H]1[C@H]32`, the Ratio Ki in the experiment on PC-12 turned out to be 1.9. Besides, the Ki was 663 nM in experiment [1]; over 10000 nM on Mu-type opioid receptor; over 10000 nM in experiment [2]; 345 nM in experiment [3]; over 10000 nM in experiment [4].
Turning to `CC[C@H]1C(=O)C[C@@H]2CCN(C)[C@@H]3CCC[C@H]1[C@@H]23`, the Ratio Ki in the experiment on PC-12 is over 43.3. Also, the inhibition constant Ki was over 5930 nM in experiment [1]; over 10000 nM on Mu-type opioid receptor; over 10000 nM in experiment [2]; 137 nM in experiment [3]; over 10000 nM in experiment [4].
In the case of `COc1ccc(C[C@H]2C(=O)C[C@@H]3CCN(C)[C@@H]4CCC[C@H]2[C@@H]34)cc1`, in the experiment on PC-12, the Ratio Ki came to 50.2. The inhibitory constant (Ki) is 251 nM in experiment [1]; over 10000 nM on Mu-type opioid receptor; over 10000 nM in experiment [2]; 5 nM in experiment [3]; over 10000 nM in experiment [4].
On to `CCCN1CC[C@H]2CC3=Nc4ccccc4[C@]3(CC)[C@H]3CCC[C@@H]1[C@H]23`, for which, in the experiment with PC-12, the Ratio Ki stood at 10.9. The Ki is 76 nM in experiment [1]; over 10000 nM on Mu-type opioid receptor; over 10000 nM in experiment [2]; 7 nM in experiment [3]; over 10000 nM in experiment [4].
Regarding `CC[C@H]1C(=O)C[C@@H]2CCN(CC3CCCCC3)[C@@H]3CCC[C@H]1[C@@H]23`, in the experiment on PC-12, the Ratio Ki amounted to 0.8. Moreover, the Ki in experiment [1] was 3 nM; at Mu-type opioid receptor, 1900 nM; in experiment [2], over 10000 nM; in experiment [3] it was 4 nM; in experiment [4], 278 nM.
In the case of `CCCCCCCN1CC[C@H]2CC(=O)[C@H](CC)[C@H]3CCC[C@@H]1[C@H]23`, the Ratio Ki in the experiment on PC-12 came to 4. Also, the Ki in experiment [1] was 8 nM; on Mu-type opioid receptor it was 632 nM; in experiment [2] it was over 10000 nM; in experiment [3] it was 2 nM; in experiment [4] it was over 10000 nM.
In the case of `CC[C@H]1C(=O)C[C@@H]2CCN(C(=O)NCc3ccc(Cl)cc3)[C@@H]3CCC[C@H]1[C@@H]23`, the Ratio Ki with PC-12 worked out at 2.6. In addition, the Ki in experiment [1] is 1910 nM; at Mu-type opioid receptor, over 10000 nM; in experiment [2] it was over 10000 nM; in experiment [3] it was 722 nM; in experiment [4], over 10000 nM.
`CC[C@H]1C(=O)C[C@@H]2CCN(Cc3cccs3)[C@@H]3CCC[C@H]1[C@@H]23`: the Ratio Ki in the experiment on PC-12 turned out to be 31.2. In addition, the inhibition constant Ki was 187 nM in experiment [1]; 892 nM on Mu-type opioid receptor; over 10000 nM in experiment [2]; 6 nM in experiment [3]; 1470 nM in experiment [4].
For the compound `CC[C@H]1C(=O)C[C@@H]2CCN(CCOC)[C@@H]3CCC[C@H]1[C@@H]23`, the Ratio Ki in the experiment with PC-12 was 16.3. The Ki was 423 nM in experiment [1]; over 10000 nM at Mu-type opioid receptor; over 10000 nM in experiment [2]; 26 nM in experiment [3]; over 10000 nM in experiment [4].
`O=C1C[C@@H]2CCN(Cc3nccs3)[C@@H]3CCC[C@@H]([C@@H]23)[C@H]1Cc1ccccc1`: the Ratio Ki in the experiment with PC-12 came to 90. Besides, the Ki is 270 nM in experiment [1]; over 10000 nM on Mu-type opioid receptor; over 10000 nM in experiment [2]; 3 nM in experiment [3]; 1400 nM in experiment [4].
Regarding `O=C(CCCN1CCC(O)(c2ccc(Cl)cc2)CC1)c1ccc(F)cc1` [HALOPERIDOL], the Ki in experiment [1] stood at 14 nM.
With `CCCN1CC[C@H]2CC(=O)[C@H](Cc3ccc(OC)cc3)[C@H]3CCC[C@@H]1[C@H]23`, the Ratio Ki with PC-12 was determined as 3.2. For the same compound, the Ki in experiment [1] is 29 nM; at Mu-type opioid receptor, over 10000 nM; in experiment [2], over 10000 nM; in experiment [3], 9 nM; in experiment [4], over 10000 nM.
